Data reported in patent US20240368092A1, “2,4-Dihydro-3H-1,2,4-Triazol-3-One P2X7 Antagonists” (Breye Therapeutics ApS, priority 2021, published 2024).

Key:
Format in all cases: cell-based
humanP2X7 = target: T1, humanP2X7 (Homo sapiens, UniProt Q99572); experiment: P2X7 channel calcium-influx assay (Fluo-8, FLIPR TETRA), human P2X7; details: HEK-293 cells stably transfected with P2X7; Bz-ATP at EC80; low divalent cation buffer; read-out: humanP2X7 (activity range)
T1 construct: expressed in transfected cells; host or cells: HEK-293
T1 sequence (Q99572 1-595): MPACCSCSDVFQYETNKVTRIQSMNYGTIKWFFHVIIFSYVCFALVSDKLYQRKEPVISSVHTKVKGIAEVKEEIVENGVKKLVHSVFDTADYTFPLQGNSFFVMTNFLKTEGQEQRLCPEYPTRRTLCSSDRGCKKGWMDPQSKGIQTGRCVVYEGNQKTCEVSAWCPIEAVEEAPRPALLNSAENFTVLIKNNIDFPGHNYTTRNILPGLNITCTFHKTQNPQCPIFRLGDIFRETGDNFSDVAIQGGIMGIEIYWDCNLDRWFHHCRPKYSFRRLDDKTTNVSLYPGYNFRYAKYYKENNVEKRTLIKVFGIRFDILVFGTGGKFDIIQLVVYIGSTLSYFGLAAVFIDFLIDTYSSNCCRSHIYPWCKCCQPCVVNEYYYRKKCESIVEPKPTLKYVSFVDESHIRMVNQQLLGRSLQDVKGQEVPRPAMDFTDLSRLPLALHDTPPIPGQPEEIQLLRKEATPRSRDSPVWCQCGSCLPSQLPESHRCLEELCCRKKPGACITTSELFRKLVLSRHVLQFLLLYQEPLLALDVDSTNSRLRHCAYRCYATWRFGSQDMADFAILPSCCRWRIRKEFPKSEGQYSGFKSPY
Method in brief: (§1)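 HEK-293 cells stably expressing the respective species' P2X7, Fluo-8 NW loaded 1 h at RT in low divalent buffer (0.3 mM Ca2+, 0 mM Mg2+). Compound preincubated 5 min, then Bz-ATP at EC80; FLIPR calcium influx over 3 min. IC50 from % inhibition relative to reference antagonist A438079, reported as potency bins.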

human P2X7 channel = target: T2, human P2X7 channel (Homo sapiens, UniProt Q99572); experiment: human P2X7 channel assay by automated patch-clamp (QPatch 16X); details: HEK-293 cells expressing P2X7; current evoked by 100 microM BzATP; whole-cell, held at -80 mV; read-out: human Q-Patch (activity range)
T2 construct: expressed in transfected cells; host or cells: HEK-293
T2 sequence (Q99572 1-595): T1 sequence (Q99572 1-595)
Method in brief: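 Whole-cell patch clamp on HEK-293 cells expressing P2X7, room temperature, held at −80 mV, CsF internal and NaCl external (pH 7.4). Currents evoked by 100 microM BzATP, four controls then with compound at 1, 10, 100 and 1000 nM; peak inward current normalized, IC50 from dose-response fit, reported as potency bins.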

ratP2X7 = target: T3, ratP2X7 (Rattus norvegicus, UniProt Q64663); experiment: P2X7 channel calcium-influx assay (Fluo-8, FLIPR TETRA), rat P2X7; details: HEK-293 cells stably transfected with P2X7; Bz-ATP at EC80; low divalent cation buffer; read-out: ratP2X7 (activity range)
T3 construct: expressed in transfected cells; host or cells: HEK-293
T3 sequence (Q64663 1-595): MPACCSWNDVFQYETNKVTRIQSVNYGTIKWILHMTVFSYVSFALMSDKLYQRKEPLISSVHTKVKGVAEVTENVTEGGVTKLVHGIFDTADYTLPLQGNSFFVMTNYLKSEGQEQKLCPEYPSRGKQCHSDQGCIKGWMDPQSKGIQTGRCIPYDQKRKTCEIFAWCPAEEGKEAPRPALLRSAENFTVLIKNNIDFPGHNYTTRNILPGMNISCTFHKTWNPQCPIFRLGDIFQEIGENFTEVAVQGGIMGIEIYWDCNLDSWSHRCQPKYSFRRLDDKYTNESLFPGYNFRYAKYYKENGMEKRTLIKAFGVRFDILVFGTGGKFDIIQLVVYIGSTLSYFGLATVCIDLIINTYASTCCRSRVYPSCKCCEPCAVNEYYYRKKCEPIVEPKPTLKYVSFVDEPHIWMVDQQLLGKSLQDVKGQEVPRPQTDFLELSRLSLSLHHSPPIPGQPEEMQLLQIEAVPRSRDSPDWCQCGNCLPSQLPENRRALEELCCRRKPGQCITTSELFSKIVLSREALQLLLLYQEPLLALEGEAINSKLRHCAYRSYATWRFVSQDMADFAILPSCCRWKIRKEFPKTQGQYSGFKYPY
Method in brief: as §1

mouseP2X7 = target: T4, mouseP2X7 (Mus musculus, UniProt Q9Z1M0); experiment: P2X7 channel calcium-influx assay (Fluo-8, FLIPR TETRA), mouse P2X7; details: HEK-293 cells stably transfected with P2X7; Bz-ATP at EC80; low divalent cation buffer; read-out: mouseP2X7 (activity range)
T4 construct: expressed in transfected cells; host or cells: HEK-293
T4 sequence (Q9Z1M0 1-595): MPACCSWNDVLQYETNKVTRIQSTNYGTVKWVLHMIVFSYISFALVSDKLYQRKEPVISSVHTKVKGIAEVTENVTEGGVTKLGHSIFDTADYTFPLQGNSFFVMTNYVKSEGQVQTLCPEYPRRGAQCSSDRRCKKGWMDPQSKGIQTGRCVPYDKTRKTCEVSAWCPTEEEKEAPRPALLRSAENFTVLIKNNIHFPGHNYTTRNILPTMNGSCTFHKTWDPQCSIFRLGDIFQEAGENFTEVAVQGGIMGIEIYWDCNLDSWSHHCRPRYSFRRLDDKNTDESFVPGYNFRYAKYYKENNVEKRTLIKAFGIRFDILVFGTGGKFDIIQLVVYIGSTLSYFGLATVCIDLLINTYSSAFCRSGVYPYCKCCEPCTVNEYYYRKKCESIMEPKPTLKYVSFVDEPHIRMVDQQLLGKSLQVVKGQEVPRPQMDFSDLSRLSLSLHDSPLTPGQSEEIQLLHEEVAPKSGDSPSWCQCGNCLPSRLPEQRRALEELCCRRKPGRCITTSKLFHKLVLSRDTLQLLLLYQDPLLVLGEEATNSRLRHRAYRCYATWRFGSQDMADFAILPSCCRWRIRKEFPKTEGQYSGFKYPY
Method in brief: as §1

SMILES | IC50 (humanP2X7) [nM] | IC50 (human P2X7 channel) [nM] | IC50 (ratP2X7) [nM] | IC50 (mouseP2X7) [nM]
Cn1nc(Cc2ccc(F)cc2Cl)n(CC2CCC(C(F)(F)F)CC2)c1=O (stereo not shown) [Example 52, 5-(2-chloro-4-fluorobenzyl)-2-methyl-4-((4-(trifluoromethyl)cyclohexyl)methyl)-2,4-dihydro-3H-1,2,4-triazol-3-one] | 200 to 1000 | 100 to 1000 | < 200 | 1000 to 10000
Cn1nc(Cc2c(F)cccc2Cl)n(CC2CCCO2)c1=O (stereo not shown) [Example 20, 5-(2-chloro-6-fluorobenzyl)-2-methyl-4-((tetrahydrofuran-2-yl)methyl)-2,4-dihydro-3H-1,2,4-triazol-3-one] | 10000 to 30000 | 1000 to 10000 | 10000 to 30000 | 10000 to 30000
Cn1nc(Cc2c(F)cccc2Cl)n(CCN2CCOCC2)c1=O [Example 22, 5-(2-chloro-6-fluorobenzyl)-2-methyl-4-(2-morpholinoethyl)-2,4-dihydro-3H-1,2,4-triazol-3-one] | 10000 to 30000 | 1000 to 10000 | 10000 to 30000 | 10000 to 30000
Cn1nc(Cc2ccccc2F)n(CC2CCC3(CC2)CC3)c1=O [Example 47, 5-(2-fluorobenzyl)-2-methyl-4-(spiro[2.5]octan-6-ylmethyl)-2,4-dihydro-3H-1,2,4-triazol-3-one] | 200 to 1000 | 100 to 1000 | < 200 | 1000 to 10000
Cn1nc(Cc2c(F)cccc2Cl)n(CC2(C)CCCCCC2)c1=O [Example 56, 5-[(2-chloro-6-fluorophenyl)methyl]-2-methyl-4-[(1-methylcycloheptyl)methyl]-2,4-dihydro-3H-1,2,4-triazol-3-one] | 1000 to 10000 | 1000 to 10000 | 1000 to 10000 | 10000 to 30000
Cn1nc(Cc2ccccc2F)n(CC2CCC(C(F)(F)F)CC2)c1=O (stereo not shown) [Example 51, 5-(2-fluorobenzyl)-2-methyl-4-((4-(trifluoromethyl)cyclohexyl)methyl)-2,4-dihydro-3H-1,2,4-triazol-3-one] | 200 to 1000 | 100 to 1000 | < 200 | 1000 to 10000
CN1CCCCC1Cn1c(Cc2c(F)cccc2Cl)nn(CC(F)(F)F)c1=O (stereo not shown) [Example 68, 5-[(2-chloro-6-fluorophenyl)methyl]-4-[(1-methylpiperidin-2-yl)methyl]-2-(2,2,2-trifluoroethyl)-2,4-dihydro-3H-1,2,4-triazol-3-one] | 1000 to 10000 | 1000 to 10000 | 200 to 1000 | 1000 to 10000
Cc1ncccc1Cn1c(CC2CCCCC2)nn(C)c1=O [Example 31, 5-(cyclohexylmethyl)-2-methyl-4-((2-methylpyridin-3-yl)methyl)-2,4-dihydro-3H-1,2,4-triazol-3-one] | 1000 to 10000 | 100 to 1000 | 1000 to 10000 | 10000 to 30000
O=c1n(CC2CC2)nc(Cc2c(F)cccc2Cl)n1CC1CCC(F)(F)C1 (stereo not shown) [Example 66, 5-[(2-chloro-6-fluorophenyl)methyl]-2-(cyclopropylmethyl)-4-[(3,3-difluorocyclopentyl)methyl]-2,4-dihydro-3H-1,2,4-triazol-3-one] | 200 to 1000 | 100 to 1000 | < 200 | 1000 to 10000

Further lines, results first:

IC50 (humanP2X7) [nM] | IC50 (human P2X7 channel) [nM] | IC50 (ratP2X7) [nM] | IC50 (mouseP2X7) [nM] | SMILES
200 to 1000 | 100 to 1000 | 200 to 1000 | 1000 to 10000 | Cn1nc(Cc2ccc(F)cc2Cl)n(CCC2CCC(F)(F)CC2)c1=O [Example 36, 5-(2-chloro-4-fluorobenzyl)-4-(2-(4,4-difluorocyclohexyl)ethyl)-2-methyl-2,4-dihydro-3H-1,2,4-triazol-3-one]
200 to 1000 | 100 to 1000 | < 200 | 1000 to 10000 | Cn1nc(Cc2ccccc2C(F)(F)F)n(CC2CCCCC2)c1=O [Example 17, 4-(cyclohexylmethyl)-2-methyl-5-(2-(trifluoromethyl)benzyl)-2,4-dihydro-3H-1,2,4-triazol-3-one]
200 to 1000 | 100 to 1000 | < 200 | 1000 to 10000 | CCn1nc(CC2CCCCCC2)n(Cc2c(F)cccc2Cl)c1=O [Example 60, 4-[(2-chloro-6-fluorophenyl)methyl]-5-(cycloheptylmethyl)-2-ethyl-2,4-dihydro-3H-1,2,4-triazol-3-one]
200 to 1000 | 100 to 1000 | < 200 | 1000 to 10000 | O=c1n(CC(F)(F)F)nc(CC2CCC(F)(F)CC2)n1Cc1c(F)cccc1Cl [Example 70, 4-[(2-chloro-6-fluorophenyl)methyl]-5-[(4,4-difluorocyclohexyl)methyl]-2-(2,2,2-trifluoroethyl)-2,4-dihydro-3H-1,2,4-triazol-3-one]
< 200 | < 10 | < 200 | < 200 | O=c1n(CC(F)(F)F)nc(Cc2ccccc2Cl)n1CC1CCC(F)(F)CC1 [Example 62, 5-[(2-chlorophenyl)methyl]-4-[(4,4-difluorocyclohexyl)methyl]-2-(2,2,2-trifluoroethyl)-2,4-dihydro-3H-1,2,4-triazol-3-one]
< 200 | 10 to 100 | < 200 | < 200 | O=c1n(CC2CC2)nc(Cc2c(F)cccc2Cl)n1CC1CCC(F)(F)CC1 [Example 43, 5-(2-chloro-6-fluorobenzyl)-2-(cyclopropylmethyl)-4-((4,4-difluorocyclohexyl)methyl)-2,4-dihydro-3H-1,2,4-triazol-3-one]
< 200 | 10 to 100 | < 200 | 200 to 1000 | CCn1nc(Cc2ccccc2Cl)n(CC2CCC(F)(F)CC2)c1=O [Example 63, 5-[(2-chlorophenyl)methyl]-4-[(4,4-difluorocyclohexyl)methyl]-2-ethyl-2,4-dihydro-3H-1,2,4-triazol-3-one]
